From US10010520B2, “Combined application of isothiocyanate compound and anti-cancer medicine” (JC (WUXI) COMPANY, INC., priority 2013, dated 2018)
“And” between values parts separate entries of the source, which are not always exact repeats. Equal entries are not always repeated. Structures can show the parent of a compound that is named as a salt. Where two headings read alike, the source gives them in different places.

Key:
Jurkat E6-1 cells = assay: CellTiter-Glo cell viability, drugs alone or in combination, Jurkat E6-1 cells; format: cell-based, human; details: Homo sapiens
Protocol: (§1) isothiocyanates or derivatives thereof and DNA-effecting or influencing anticancer drugs, kinase-inhibiting anticancer drugs or hormonal anticancer drugs for endocrine therapy were administered separately or in combination to cancer cells. Cells were seeded into 384-well plates, and cultured for 24 hours in a CO2 incubator. Drugs were dissolved in DMSO and diluted to 9 concentration-gradients in 96 well plates, and then added to corresponding cells in 384-well plates, in which the concentrations of DMSO in 384 well plates were less than 1%. Triplicate wells were set for each concentration. After administration, the cells were cultured in the CO2 incubator for another 72 hrs, and afterwards, cell viability was tested by using CellTiter-Glo® reagent and luminescence detector. And IC50 values of each administration group were calculated.
(§2) CI value was calculated by the following formula: CI=(Am)50/(As)50+(Bm)50/(Bs)50,
(§3) Triplicate wells were set for each co-administration cell well.
(§4) After administration, cells were cultured in the CO2 incubator for another 72 hrs, and afterwards, cell viability was tested by using CellTiter-Glo® reagent and luminescence detector. Curves were plotted according to concentrations or logarithm concentrations of drug A vs cell inhibition rate in the corresponding cell well, and IC50, i.e. (Am)50 was calculated.
(§5) 9 concentration gradients of drug A were set (A1, A2, A3, A4, A5, A6, A7, A8, A9), and administrated alone to the corresponding cells in the 384 well plate, and triplicate wells were set for each administration concentration. After administration, the cells were cultured in the CO2 incubator for another 72 hrs, and afterwards, cell viability was tested by using CellTiter-Glo® reagent and luminescence detector. Curves were plotted according to concentration or logarithm concentration of drug A vs the cell inhibition rate in the corresponding cell well, and IC50, i.e. (As)50 was calculated.
(§6) After administration, the cells were cultured in the CO2 incubator for another 72 hrs, and afterwards, cell viability was tested by using CellTiter-Glo® reagent and luminescence detector.

Saos-2 cells = assay: CellTiter-Glo cell viability, drugs alone or in combination, Saos-2 cells; format: cell-based, human; details: Homo sapiens, SAOS-2, 72 h
Protocol: as §1, §2, §3, §4, §5, §6

[1] = system: human leukemia HL-60 cells; assay: CellTiter-Glo cell viability, drugs alone or in combination, HL-60 cells; format: cell-based
Protocol: as §1, §2, §3, §4, §5, §6

[2] = system: pancreatic cancer cells PANC-1; assay: CellTiter-Glo cell viability, drugs alone or in combination, PANC-1 cells; format: cell-based, human
Protocol: as §1, §2, §3, §4, §5, §6

LNCaP cells = assay: CellTiter-Glo cell viability, drugs alone or in combination, LNCaP cells; format: cell-based, human
Protocol: Cell culture: Androgen-dependent human prostate cancer cells LNCaP, from Shanghai Medicilon Ltd., were placed in a 37° C., 5% CO2 cell incubator, and were cultured in RPMI1640 culture medium with 10% FBS. Androgen-independent human prostate cancer cells DU145, PC-3, from Shanghai Medicilon Ltd., were placed in a 37° C., 5% CO2 cell incubator, and were cultured in F12 culture medium with 10% FBS.
as §1, §2, §3, §4, §5, §6

U251 cells = assay: CellTiter-Glo cell viability, drugs alone or in combination, U251 cells
[3] = system: human kidney cancer cells 786-O; assay: CellTiter-Glo cell viability, drugs alone or in combination, 786-O cells; details: 786-0, 72 h
OVCAR-3 cells = assay: CellTiter-Glo cell viability, drugs alone or in combination, OVCAR-3 cells
[4] = system: Human breast cancer MDA-MB-231 cells; assay: CellTiter-Glo cell viability, drugs alone or in combination, MDA-MB-231 cells; details: Homo sapiens, MDA-MB-231, 72 h
HeLa cells = assay: CellTiter-Glo cell viability, drugs alone or in combination, HeLa cells; format: cell-based, human; details: 72 hrs, read-out: (Bs)50, IC50 of drug B when used alone
Protocol: as §1, §2, §3, §4, §5, §6

[5] = read-out: (As)50, IC50 of drug A when used alone
[6] = Homo sapiens, PANC-1 cells, 72 hrs, read-out: (As)50, IC50 of drug A when used alone
[7] = Homo sapiens, LNCaP, 72 h, LNCaP cells, 72 hrs, read-out: (As)50, IC50 of drug A when used alone
[8] = Homo sapiens, OVCAR-3, 72 h, read-out: (As)50, IC50 of drug A when used alone
[9] = read-out: (Bs)50, IC50 of drug B when used alone, 786-O cells, 72 hrs
[10] = Homo sapiens, HL-60, 72 h, read-out: (Bs)50, IC50 of drug B when used alone
[11] = PANC-1 cells, 72 hrs, read-out: (As)50, IC50 of drug A when used alone
[12] = LNCaP cells, 72 hrs, read-out: (As)50, IC50 of drug A when used alone
[13] = 72 hrs, read-out: (Bs)50, IC50 of drug B when used alone
[14] = Homo sapiens, U-251, 72 h, read-out: (Bs)50, IC50 of drug B when used alone, U251 cells, 72 hrs

S=C=NC1CCCCC1 [cyclohexyl isothiocyanate]
IC50 (Jurkat E6-1 cells; Jurkat E6-1 cells, 72 hrs, read-out: (As)50, IC50 of drug A when used alone): 42.1 µM | IC50 (Saos-2 cells; [5]): 66 µM | IC50 ([1]; Homo sapiens, HL-60, 72 h, read-out: (As)50, IC50 of drug A when used alone): 52.7 µM | IC50 [2, 6]: 193 µM | IC50 (LNCaP cells; [7]): 54 µM | IC50 (U251 cells; Homo sapiens, U-251, 72 h, read-out: (As)50, IC50 of drug A when used alone): 71.1 µM | IC50 [3, 5]: 107 µM | IC50 (OVCAR-3 cells; [8]): 36.5 µM | IC50 [4, 5]: 37.5 µM

Cc1ccc(Nc2nccc(N(C)c3ccc4c(C)n(C)nc4c3)n2)cc1S(N)(=O)=O [Pazopanib, pazopanib, reference compound]
IC50 [3, 9]: 199 µM

CCNC(=O)[C@@H]1CCCN1C(=O)[C@H](CCCNC(=N)N)NC(=O)[C@H](CC(C)C)NC(=O)[C@@H](CC(C)C)NC(=O)[C@H](Cc1ccc(O)cc1)NC(=O)[C@H](CO)NC(=O)[C@H](Cc1c[nH]c2ccccc12)NC(=O)[C@H](Cc1c[nH]cn1)NC(=O)[C@@H]1CCC(=O)N1 [leuprorelin, reference compound]
IC50 (LNCaP cells; LNCaP cells, 72 hrs, read-out: (Bs)50, IC50 of drug B when used alone): 323 µM

Nc1nc(F)nc2c1ncn2[C@@H]1O[C@H](CO)[C@@H](O)[C@@H]1O [fludarabine, Fludarabine]
IC50 [1, 10]: 1.57 µM

S=C=NCc1ccc(Cl)cc1 [4-chloro-benzyl isothiocyanate]
IC50 ([2]; Homo sapiens, PANC-1, 72 h, read-out: (As)50, IC50 of drug A when used alone): 34 µM | IC50 (LNCaP cells; Homo sapiens, LNCaP, 72 h, read-out: (As)50, IC50 of drug A when used alone): 17.3 µM | IC50 (OVCAR-3 cells; [8]): 18.2 µM

CNC(=O)c1cc(Oc2ccc(NC(=O)Nc3ccc(Cl)c(C(F)(F)F)c3)cc2)ccn1 [Sorafenib, sorafenib, reference compound]
IC50 [3, 9]: 6.99 µM

C[S+]([O-])CCCCN=C=S (stereo not shown) [sulforaphane, 1-isothiocyanate-4-methanesulfonyl butane]
IC50 ([2]; Homo sapiens, PANC-1, 72 h, PANC-1 cells, 72 hrs, read-out: (As)50, IC50 of drug A when used alone): 14.3 µM | IC50 (LNCaP cells; [7]): 15.3 µM

CC(=O)N[C@@H](CSC(=S)NCCc1ccccc1)C(=O)O [phenethyl isothiocyanate-N-acetylcysteine adduct]
IC50 [2, 11]: 28.6 µM | IC50 (LNCaP cells; [12]): 16.4 µM

arsenic trioxide
IC50 [1, 13]: 2.75 µM

CC(N=C=S)c1ccccc1 [L-ethyl phenyl isothiocyanate]
IC50 [2, 11]: 24 µM | IC50 (OVCAR-3 cells; read-out: (As)50, IC50 of drug A when used alone, OVCAR-3 cells, 72 hrs): 43.6 µM

O=NN(CCCl)C(=O)NC1CCCCC1 [Lomustine]
IC50 (U251 cells; [14]): 65.4 µM | IC50 (U251 cells; read-out: (Bs)50, IC50 of drug B when used alone, U251 cells, 72 hrs): 115 µM

COc1cccc2c1C(=O)c1c(O)c3c(c(O)c1C2=O)C[C@@](O)(C(C)=O)C[C@@H]3O[C@H]1C[C@H](N)[C@H](O)[C@H](C)O1 [daunorubicin, Daunorubicin]
IC50 [1, 13]: 0.236 µM

S=C=NCCCCCCc1ccccc1 [6-Phenhexyl isothiocyanate, 6-phenyl-hexyl isothiocyanate]
IC50 [2, 6]: 30.9 µM | IC50 (LNCaP cells; [7]): 18.8 µM

C#Cc1cccc(Nc2ncnc3cc(OCCOC)c(OCCOC)cc23)c1 [erlotinib, reference compound]
IC50 ([2]; Homo sapiens, PANC-1, 72 h, PANC-1 cells, 72 hrs, read-out: (Bs)50, IC50 of drug B when used alone): > 100 µM

CC(C)C[C@H](NC(=O)[C@H](Cc1ccccc1)NC(=O)c1cnccn1)B(O)O [bortezomib, reference compound]
IC50 (Saos-2 cells; Saos-2 cells, 72 hrs, read-out: (Bs)50, IC50 of drug B when used alone): 0.807 µM

CC(=O)O[C@H]1C(=O)[C@@]2(C)[C@H]([C@H](OC(=O)c3ccccc3)[C@]3(O)C[C@H](OC(=O)[C@H](O)[C@@H](NC(=O)c4ccccc4)c4ccccc4)C(C)=C1C3(C)C)[C@]1(OC(C)=O)CO[C@@H]1C[C@@H]2O [Paclitaxel, paclitaxel, reference compound]
IC50 ([4]; read-out: (Bs)50, IC50 of drug B when used alone, MDA-MB-231 cells, 72 hrs): 0.0199 µM

C/C=C1\NC(=O)[C@H]2CSSCC/C=C/[C@H](CC(=O)N[C@H](C(C)C)C(=O)N2)OC(=O)[C@H](C(C)C)NC1=O [Romidepsin, romidepsin, reference compound]
IC50 (Jurkat E6-1 cells; Jurkat E6-1 cells, 72 hrs, read-out: (Bs)50, IC50 of drug B when used alone): 0.00201 µM

Bleomycin [reference compound]
IC50 (HeLa cells): 24.5 µM

S=C=NCCCCc1ccccc1 [4-Phenbutyl isothiocyanate, 4-phenylbutyl isothiocyanate]
IC50 [2, 6]: 26.9 µM | IC50 (LNCaP cells; [7]): 17.5 µM

S=C=NCCCc1ccccc1 [3-Phenylpropyl isothiocyanate, 3-phenyl propyl isothiocyanate]
IC50 (LNCaP cells; [7]): 24.5 µM

S=C=NC(c1ccccc1)(c1ccccc1)c1ccccc1 [trityl isothiocyanate]
IC50 [2, 6]: > 50 µM | IC50 (LNCaP cells; [7]): 238 µM

CO[C@H]1C[C@@H]2CC[C@@H](C)[C@@](O)(O2)C(=O)C(=O)N2CCCC[C@H]2C(=O)O[C@H]([C@H](C)C[C@@H]2CC[C@@H](OCCO)[C@H](OC)C2)CC(=O)[C@H](C)/C=C(\C)[C@@H](O)[C@@H](OC)C(=O)[C@H](C)C[C@H](C)/C=C/C=C/C=C/1C [everolimus]
IC50 (U251 cells; [14]): 23.7 µM

Cn1c(CCCC(=O)O)nc2cc(N(CCCl)CCCl)ccc21 [bendamustine, Bendamustine, reference compound]
IC50 (Jurkat E6-1 cells; Jurkat E6.1, 72 h, read-out: (Bs)50, IC50 of drug B when used alone): > 100 µM

S=C=Nc1ccccc1 [Phenyl isothiocyanate, phenyl isothiocyanate]
IC50 [2, 6]: 77.2 µM | IC50 (LNCaP cells; [7]): 43.6 µM

C#CCC(Cc1cnc2nc(N)nc(N)c2n1)c1ccc(C(=O)N[C@@H](CCC(=O)O)C(=O)O)cc1 (stereo partly shown) [Pralatrexate, reference compound]
IC50 (Jurkat E6-1 cells; Jurkat E6.1, 72 h, Jurkat E6-1 cells, 72 hrs, read-out: (Bs)50, IC50 of drug B when used alone): 0.0017 µM

O=P1(N(CCCl)CCCl)NCCCO1 (stereo not shown) [cyclophosphamide, Cyclophosphamide]
IC50 (OVCAR-3 cells; Homo sapiens, OVCAR-3, 72 h, read-out: (Bs)50, IC50 of drug B when used alone): > 100 µM

Cc1cn(-c2cc(NC(=O)c3ccc(C)c(Nc4nccc(-c5cccnc5)n4)c3)cc(C(F)(F)F)c2)cn1 [nilotinib]
IC50 [1, 10]: 3.9 µM

CC[C@]1(O)C[C@H]2CN(CCc3c([nH]c4ccccc34)[C@@](C(=O)OC)(c3cc4c(cc3OC)N(C=O)[C@H]3[C@@](O)(C(=O)OC)[C@H](OC(C)=O)[C@]5(CC)C=CCN6CC[C@]43[C@@H]65)C2)C1 [vincristine sulfate]
IC50 [1, 13]: 0.0126 µM

CC[C@@]1(O)C(=O)OCc2c1cc1n(c2=O)Cc2cc3c(CN(C)C)c(O)ccc3nc2-1 [topotecan, Topotecan]
IC50 (OVCAR-3 cells; Homo sapiens, OVCAR-3, 72 h, read-out: (Bs)50, IC50 of drug B when used alone, OVCAR-3 cells, 72 hrs): 0.0774 µM

N.N.O=C([O-])C1(C(=O)[O-])CCC1.[Pt+2] [carboplatin, Carboplatin]
IC50 (OVCAR-3 cells; read-out: (Bs)50, IC50 of drug B when used alone, OVCAR-3 cells, 72 hrs): 58.9 µM and 38.7 µM

COc1ccc(CN=C=S)cc1 [4-methoxy-benzyl isothiocyanate]
IC50 [2, 6]: 11.3 µM

C=CCN=C=S [allyl isothiocyanate]
IC50 [2, 6]: 116 µM

S=C=NCCCc1ccccc1 [Phenylpropyl isothiocyanate, phenylpropyl isothiocyanate]
IC50 [2, 6]: 35.1 µM | IC50 (LNCaP cells; [12]): 22.9 µM
